{"source": "patent US10577363B2", "about": "“Substituted piperidine compounds” (EPIZYME, INC., priority 2014, dated 2020)"}
{"molecular_target": "SMYD3 (Homo sapiens (Human), UniProt Q9H7B4)", "experiment": "SMYD3 biochemical assay (SPA, 3H-SAM methylation of MEKK2 protein substrate)", "conditions": "read-out: SMYD3 Biochem IC50 (μM)*", "in_short": "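Methylation of N-terminally GST-tagged MEKK2 by untagged full-length human SMYD3, using 3H-SAM, in pH 8.0 Tris buffer with TCEP, BSG and Tween 20; enzyme and compound sat 30 min at room temperature before substrate addition. Stopped with 100 uM (final) cold SAM; incorporation read by scintillation proximity as dpm/cpm.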", "units": {"IC50": "µM"}}
{"molecule": "C[C@@H]1CC(NC(=O)c2cc(C3CC3)on2)CCN1C(=O)[C@@H]1CC[C@H](N)C1", "note": "(stereo partly drawn) [compound 96, N-((2R)-1-((1R,3S)-3-aminocyclopentane-1-carbonyl)-2-methylpiperidin-4-yl)-5-cyclopropylisoxazole-3-carboxamide]", "IC50": 1.9}
{"molecule": "C[C@@H]1CC(NC(=O)c2cc(C3CC3)on2)CCN1C(=O)[C@H]1C[C@H](N)C1", "note": "(stereo partly drawn) [compound 97, N-((2R)-1-((1r,3R)-3-aminocyclobutane-1-carbonyl)-2-methylpiperidin-4-yl)-5-cyclopropylisoxazole-3-carboxamide]", "IC50": 0.779}
{"molecule": "CCCC1CC(NC(=O)c2cc(C3CC3)on2)CCN1C(=O)[C@H]1CC[C@H](N)CC1", "note": "(stereo partly shown) [compound 98, N-(1-((1r,4r)-4-aminocyclohexane-1-carbonyl)-2-propylpiperidin-4-yl)-5-cyclopropylisoxazole-3-carboxamide]", "IC50": 0.655}
{"molecule": "N[C@H]1CC[C@H](C(=O)N2CCC(NC(=O)c3cc(C4CC4)on3)CC23CCC3)CC1", "note": "(stereo partly shown) [compound 100, N-(5-((1r,4r)-4-aminocyclohexane-1-carbonyl)-5-azaspiro[3.5]nonan-8-yl)-5-cyclopropylisoxazole-3-carboxamide]", "IC50": 2.2}
{"molecule": "N[C@H]1CC[C@H](C(=O)N2[C@@H]3CC[C@H]2C[C@H](NC(=O)c2cc(C4CC4)on2)C3)CC1", "note": "[compound 101, N-((1R,3S,5S)-8-((1r,4R)-4-aminocyclohexane-1-carbonyl)-8-azabicyclo[3.2.1]octan-3-yl)-5-cyclopropylisoxazole-3-carboxamide]", "IC50": "> 10"}
{"molecule": "C[C@H]1CC(NC(=O)c2cc(C3CC3)on2)CCN1C(=O)CC(C)(C)CN", "note": "(stereo partly drawn) [compound 103, N-((2S)-1-(4-amino-3,3-dimethylbutanoyl)-2-methylpiperidin-4-yl)-5-cyclopropylisoxazole-3-carboxamide]", "IC50": 1.45}
{"molecule": "C[C@@H]1CC(NC(=O)c2cc(C3CC3)on2)CCN1C(=O)CC(C)(C)CN", "note": "(stereo partly drawn) [compound 104, N-((2R)-1-(4-amino-3,3-dimethylbutanoyl)-2-methylpiperidin-4-yl)-5-cyclopropylisoxazole-3-carboxamide]", "IC50": 0.566}
{"molecule": "C[C@H]1CC(NC(=O)c2cc(C3CC3)on2)CCN1C(=O)[C@H]1CC[C@H](N(C)C)CC1", "note": "(stereo partly drawn) [compound 105, 5-cyclopropyl-N-((2S)-1-((1r,4S)-4-(dimethylamino)cyclohexane-1-carbonyl)-2-methylpiperidin-4-yl)isoxazole-3-carboxamide]", "IC50": 20}
{"molecule": "C[C@H]1CC(NC(=O)c2cc(C3CC3)on2)CCN1C(=O)[C@H]1CCC[C@H](N)C1", "note": "(stereo partly drawn) [compound 106, N-((2S)-1-((1S,3S)-3-aminocyclohexane-1-carbonyl)-2-methylpiperidin-4-yl)-5-cyclopropylisoxazole-3-carboxamide]", "IC50": 3.52}
{"molecule": "C[C@@H]1CC(NC(=O)c2cc(C3CC3)on2)CCN1C(=O)C1CCCNC1", "note": "(stereo partly drawn) [compound 107, 5-cyclopropyl-N-((2R)-2-methyl-1-(piperidine-3-carbonyl)piperidin-4-yl)isoxazole-3-carboxamide]", "IC50": 2.52}
{"molecule": "N[C@H]1CC[C@H](C(=O)N2CCC(NC(=O)c3cc(C4CC4)on3)CC2Cc2ccccc2)CC1", "note": "(stereo partly shown) [compound 108, N-(1-((1r,4r)-4-aminocyclohexane-1-carbonyl)-2-benzylpiperidin-4-yl)-5-cyclopropylisoxazole-3-carboxamide]", "IC50": 1.42}
{"molecule": "NC[C@H](Cc1ccc(O)c(C(F)(F)F)c1)C(=O)N1CCC(NC(=O)c2cc(C3CC3)on2)CC1", "note": "[compound 111, (S)-N-(1-(3-amino-2-(4-hydroxy-3-(trifluoromethyl)benzyl)propanoyl)piperidin-4-yl)-5-cyclopropylisoxazole-3-carboxamide]", "IC50": 2.47}
{"molecule": "CC(C)c1cc(C[C@H](CN)C(=O)N2CCC(NC(=O)c3cc(C4CC4)on3)CC2)ccc1O", "note": "[compound 112, (R)-N-(1-(3-amino-2-(4-hydroxy-3-isopropylbenzyl)propanoyl)piperidin-4-yl)-5-cyclopropylisoxazole-3-carboxamide]", "IC50": 1.09}
